Key:
BACE1 [1] = target: T1, BACE1 (Homo sapiens, UniProt P56817); experiment: BACE1 biochemical FRET based assay - Method 1 (Test Example 2-2); details: 0.04 μg/mL BACE1, 450 minutes, Citrate buffer pH 5.0, read-out: BACE1 Biochemical FRET based assay - Method 1 PIC50 (converted)
Source text: (§1) This assay is a Fluorescence Resonance Energy Transfer Assay (FRET) based assay. The substrate for this assay is an APP derived 13 amino acids peptide that contains the ‘Swedish’ Lys-Met/Asn-Leu mutation of the amyloid precursor protein (APP) beta-site secretase cleavage site. This substrate also contains two fluorophores: (7-methoxycoumarin-4-yl) acetic acid (Mca) is a fluorescent donor with excitation wavelength at 320 nm and emission at 405 nm and 2,4-dinitrophenol (Dnp) is a proprietary quencher acceptor. […] Upon cleavage by BACE1, the fluorophore Mca is separated from the quenching group Dnp, restoring the full fluorescence yield of the donor. The increase in fluorescence is linearly related to the rate of proteolysis.
(§2) Briefly in a 384-well format recombinant BACE1 protein in a final concentration of 0.04 μg/mL is incubated for 450 minutes at room temperature with […] substrate in incubation buffer (final concentrations: 33.3 mM Citrate buffer pH 5.0, 0.033% PEG, 3% DMSO) in the absence or presence of compound. Next the amount of proteolysis is directly measured by fluorescence measurement at T=0′-120′ and T=450′ (excitation at 320 nm and emission at 405 nm). Results are expressed in RFU (Relative Fluorescence Units), as difference between T450 and Tx (Tx is chosen depending on the reaction speed between 0 and 120 minutes.).
(§3) Data are analysed using Screener (Registered trademark) (Genedata, Switzerland). Data were normalized and % inhibition=100−[(sample−LC)/(HC−LC))*100], was plotted versus the log concentration of the test compound. Curves were analysed using non-linear regression analysis and IC50 values (inhibitory concentration causing 50% inhibition of activity) were derived from individual curves.
(§4) LC=Median of the low control values
(§5) =Low control: Reaction without enzyme
(§6) HC=Median of the High control values
(§7) =High Control: Reaction with enzyme
(§8) % Inhibition=100−[(sample−LC)/(HC−LC)*100]

BACE1 [2] = target: T1, BACE1; experiment: BACE1 cellular αLisa assay in SKNBE2 cells, Abeta 1-42 (Test Example 2-3); type: cell-based; design: endogenous in cells; host or cells: SKNBE2 human neuroblastoma cells expressing hAPP695; details: SKNBE2 cells expressing hAPP695, 18 hours incubation, read-out: Cellular αLisa assay in SKNBE2 cells Abeta 42 pIC50 (converted)
Procedure: In two αLisa assays the levels of Abeta 1-42 or Abeta total produced and secreted into the medium of human neuroblastoma SKNBE2 cells are quantified. The assays are based on the human neuroblastoma SKNBE2 expressing the wild type Amyloid Precursor Protein (hAPP695). The compounds are diluted and added to these cells, incubated for 18 hours and then measurements of Abeta 1-42 or Abeta total are taken. Abeta 1-42 or Abeta total are measured by sandwich αLisa using biotinylated antibody AbN/25 attached to streptavidin coated donor beads and antibody cAb42/26 or Ab 4G8 conjugated acceptor beads for the detection of Abeta 1-42 or Abeta total respectively. In the presence of Abeta 1-42 or Abeta total, the beads come into close proximity. The excitation of the donor beads provokes the release of singlet oxygen molecules that trigger a cascade of energy transfer in the acceptor beads, resulting in light emission. Light emission is measured after 1 h incubation (excitation at […] and emission at 615 nm).
as §3
LC=Median of the low control values • =Low control: Reaction without enzyme
HC=Median of the High control values • =High Control: Reaction with enzyme
as §8

BACE2 [3] = target: T2, BACE2 (Mus musculus, UniProt Q9JL18); experiment: BACE2 cellular assay in MIN6 cells, secreted TMEM27 (Test Example 2-5); type: cell-based; details: 24 hours incubation, secreted TMEM27 by MSD, read-out: Cellular MSD assay in Min6 cells TV1EV127 pIC50 (converted)
T2 construct: endogenous in cells; host or cells: MIN6 mouse insulinoma cells expressing Flag-V5-TMEM27-HA
T2 sequence (Q9JL18 63-514): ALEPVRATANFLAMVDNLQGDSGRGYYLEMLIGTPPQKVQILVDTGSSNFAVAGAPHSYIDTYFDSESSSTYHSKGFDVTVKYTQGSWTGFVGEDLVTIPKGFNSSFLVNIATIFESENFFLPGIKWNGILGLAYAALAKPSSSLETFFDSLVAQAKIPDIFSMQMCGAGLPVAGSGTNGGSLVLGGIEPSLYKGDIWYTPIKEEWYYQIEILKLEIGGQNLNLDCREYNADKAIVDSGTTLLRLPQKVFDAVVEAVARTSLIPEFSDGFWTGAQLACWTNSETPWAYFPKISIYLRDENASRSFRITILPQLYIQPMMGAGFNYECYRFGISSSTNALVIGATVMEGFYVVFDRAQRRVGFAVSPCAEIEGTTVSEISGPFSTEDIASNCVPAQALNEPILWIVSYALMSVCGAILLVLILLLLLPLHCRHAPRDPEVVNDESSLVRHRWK
Procedure: Cellular BACE2 activity was measured by determination of the level of secreted TMEM27 into the medium of MIN6 cells using an MSD platform. The assay is based on the mouse insulinoma MIN6 cells expressing Flag-V5-TMEM27-HA. When BACE2 cleaves TMEM27 the N-terminal part of TMEM27 with the V5-Flag tag will be shed into the medium, and the amount of this cleaved product is measured with the MSD assay.
Briefly in a 96-well format the cells are incubated for 24 hours in the presence of the compound followed by the measurement of secreted TMEM27 in the medium via MSD using FLAG-L5 coating antibody and a V5 detection antibody. When TMEM27 is captured on the electrode surface of the multi-array microplate the detection antibody, conjugated with the sulfo-Tag™, is in close proximity of the surface, it generates a light via a series of reduction and oxidation reactions. The intensity of the emitted light is measured with the MSD imager to provide a quantitative measure for the analytes in the sample.
as §3, §4, §5, §6, §7, §8

BACE2 [4] = target: T3, BACE2 (Homo sapiens, UniProt Q9Y5Z0); experiment: BACE2 biochemical FRET based assay (Test Example 2-4); details: recombinant BACE2 0.4 μg/mL, 10 μM substrate, 450 minutes, pH 5.0; read-out: BACE2 Biochemical FRET based assay pIC50 (converted)
T3 sequence (Q9Y5Z0 63-518): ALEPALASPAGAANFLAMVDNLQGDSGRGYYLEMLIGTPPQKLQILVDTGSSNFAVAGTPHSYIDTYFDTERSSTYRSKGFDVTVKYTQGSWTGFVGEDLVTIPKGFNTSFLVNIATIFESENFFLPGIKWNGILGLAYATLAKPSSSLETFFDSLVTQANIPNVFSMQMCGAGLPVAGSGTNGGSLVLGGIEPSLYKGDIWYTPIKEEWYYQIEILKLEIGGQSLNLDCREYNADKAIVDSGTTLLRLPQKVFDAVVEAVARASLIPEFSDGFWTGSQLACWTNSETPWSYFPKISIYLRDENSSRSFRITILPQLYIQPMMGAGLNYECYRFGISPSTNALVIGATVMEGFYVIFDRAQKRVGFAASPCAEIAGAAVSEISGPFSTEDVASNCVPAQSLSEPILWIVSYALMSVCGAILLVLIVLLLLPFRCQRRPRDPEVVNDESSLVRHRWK
Source text: as §1, with “assay” for “assay is an APP derived 13 amino acids peptide that”, “beta-secretase” for “beta-site secretase”, “the beta-secretase,” for “BACE1,”
Briefly in a 384-well format recombinant BACE2 protein in a final concentration of 0.4 μg/mL is incubated for 450 minutes at room temperature with 10 μM substrate in incubation buffer (final concentrations: 33.3 mM Citrate buffer pH 5.0, 0.033% PEG, 2% DMSO) in the absence or presence of compound. Next the amount of proteolysis is directly measured by fluorescence measurement at T=0 and T=450 (excitation at 320 nm and emission at 405 nm). Results are expressed in RFU (Relative Fluorescence Units), as difference between T450 and TO.
as §3, §4, §5, §6, §7, §8

BACE2 [5] = target: T3, BACE2; experiment: BACE2 biochemical FRET based assay (Test Example 2-1 (2)); details: 0.4 μg/mL BACE2, 450 minutes, Citrate buffer pH 5.0
Source text: This assay is a Fluorescence Resonance Energy Transfer Assay (FRET) based assay. The substrate for this assay contains the ‘Swedish’ Lys-Met/Asn-Leu mutation of the amyloid precursor protein (APP) beta-secretase cleavage site. This substrate also contains two fluorophores: (7-methoxycoumarin-4-yl) acetic acid (Mca) is a fluorescent donor with excitation wavelength at 320 nm and emission at 405 nm and 2,4-dinitrophenol (Dnp) is a proprietary quencher acceptor. […] Upon cleavage by the beta-secretase, the fluorophore Mca is separated from the quenching group Dnp, restoring the full fluorescence yield of the donor. The increase in fluorescence is linearly related to the rate of proteolysis. Briefly in a 384-well format recombinant BACE2 protein in a final concentration of 0.4 μg/mL was incubated for 450 minutes at room temperature with 10 μM substrate in incubation buffer (final concentrations: 33.3 mM Citrate buffer pH 5.0, 0.033% PEG, 2% DMSO) in the absence or presence of compound. Next the amount of proteolysis was directly measured by fluorescence measurement at T=0 and T=450 (excitation at 320 nm and emission at 405 nm). Results were expressed in RFU (Relative Fluorescence Units), as difference between T450 and TO.
A best-fit curve was fitted by a minimum sum of squares method to the plot of % Controlmin versus compound concentration. From this an IC50 value (inhibitory concentration causing 50% inhibition of activity) can be obtained.

BACE1 [6] = target: T1, BACE1; experiment: BACE1 biochemical FRET based assay (Test Example 2-1); details: for selectivity: BACE2 IC50 over BACE1 IC50 (FRET); for IC50: FRET, 0.04 μg/mL BACE1, 450 minutes, Citrate buffer pH 5.0
Source text: as §1, §2
A best-fit curve is fitted by a minimum sum of squares method to the plot of % Controlmin versus compound concentration. From this an IC50 value (inhibitory concentration causing 50% inhibition of activity) can be obtained.

T1 sequence (P56817 46-501): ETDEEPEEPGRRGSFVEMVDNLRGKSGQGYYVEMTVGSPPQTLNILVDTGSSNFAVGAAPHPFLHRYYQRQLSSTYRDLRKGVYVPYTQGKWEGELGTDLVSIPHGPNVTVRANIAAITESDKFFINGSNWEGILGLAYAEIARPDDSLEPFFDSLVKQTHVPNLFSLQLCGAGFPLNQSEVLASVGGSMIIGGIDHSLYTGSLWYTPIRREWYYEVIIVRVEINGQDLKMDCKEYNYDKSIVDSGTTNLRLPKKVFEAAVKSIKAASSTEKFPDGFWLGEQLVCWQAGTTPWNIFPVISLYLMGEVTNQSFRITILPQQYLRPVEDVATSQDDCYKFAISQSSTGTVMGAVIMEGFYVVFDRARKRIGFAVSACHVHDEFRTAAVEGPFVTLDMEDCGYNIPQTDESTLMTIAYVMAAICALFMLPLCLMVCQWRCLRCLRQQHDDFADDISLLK

Row | Structure (SMILES) | IC50 (BACE1 [1]) | IC50 (BACE1 [2]) | IC50 (BACE2 [3]) | IC50 (BACE2 [4]) | IC50 (BACE2 [5]) | selectivity (BACE1 [6]) | IC50 (BACE1 [6])
1 | NC1=N[C@](CF)(c2cc(NC(=O)c3cc4c(cn3)OC(F)(F)CO4)ccc2F)[C@H]2CO[C@H](CF)C[C@H]2O1 [Compound I-057] |  |  |  |  | 1000 nM | 389 | 2.57 nM
2 | Cn1cc([C@@H]2OC[C@H]3OC(N)=N[C@](C)(c4cc(NC(=O)c5cc6c(cn5)OCCO6)ccc4F)[C@H]32)cn1 [Compound I-032] |  |  |  |  | 10000 nM | 112 | 89.1 nM
3 | CN1C(N)=N[C@](C)(c2cc(NC(=O)c3cc4c(cn3)OCC(F)(F)O4)ccc2F)CS1(=O)=O [Compound I-004] |  |  |  |  | 513 nM | 38.9 | 13.2 nM
4 | CN1C(N)=N[C@@]2(c3cc(NC(=O)c4cc5c(cn4)OC(F)(F)CO5)ccc3F)CCC[C@H]2S1(=O)=O [Compound I-009] |  |  |  |  | 32.4 nM | 21.5 | 1.5 nM
5 | [2H]C1([2H])Oc2cnc(C(=O)Nc3ccc(F)c([C@]4(C)CS(=O)(=O)N(C)C(N)=N4)c3)cc2OC1([2H])[2H] [Compound I-001] |  |  |  |  | 72 nM | 60.0 | 1.2 nM
6 | C[C@@H]1OC[C@H]2OC(N)=N[C@](CF)(c3cc(NC(=O)c4cc5c(cn4)OC(F)(F)CO5)ccc3F)[C@@H]12 [Compound I-044] |  |  |  |  | 1910 nM | 131 | 14.5 nM
7 | C[C@H]1COc2cc(C(=O)Nc3ccc(F)c([C@]4(C)CS(=O)(=O)N(C)C(N)=N4)c3)ncc2O1 [Compound I-008] |  |  |  |  | 219 nM | 22.9 | 9.6 nM

More lines, now with the values ahead:

Row | IC50 (BACE1 [1]) | IC50 (BACE1 [2]) | IC50 (BACE2 [3]) | IC50 (BACE2 [4]) | IC50 (BACE2 [5]) | selectivity (BACE1 [6]) | IC50 (BACE1 [6]) | Structure (SMILES)
8 | 4.07 nM | 2.57 nM | 661 nM | 372 nM |  |  |  | [2H]C1([2H])Oc2cnc(C(=O)Nc3ccc(F)c(C4(CF)CCC(C)(S(C)(=O)=O)C(N)=N4)c3)c(F)c2OC1([2H])[2H] (centres unmarked) [II-12]
9 | 3.24 nM | 3.31 nM | 295 nM | 155 nM |  |  |  | CCS(=O)(=O)C1(CF)CCC(C)(c2cc(NC(=O)c3cc4c(cn3)OC(F)(F)CO4)ccc2F)N=C1N (centres unmarked) [II-34]
10 | 6.46 nM | 3.55 nM | 363 nM | 331 nM |  |  |  | CC1(S(C)(=O)=O)CCC(CF)(c2cc(NC(=O)c3cc4c(cn3)OCC(F)O4)ccc2F)N=C1N (centres unmarked) [II-11]
11 | 5.37 nM | 9.77 nM | 617 nM | 295 nM |  |  |  | CCS(=O)(=O)[C@]1(CF)CC[C@@](C)(c2cc(NC(=O)c3cc4c(cn3)OC(F)(F)O4)ccc2F)N=C1N [II-35]
12 | 11.7 nM | 22.9 nM | 427 nM | 331 nM |  |  |  | Cc1c(C(=O)Nc2ccc(F)c(C3(CF)CCC(C)(S(C)(=O)=O)C(N)=N3)c2)ncc2c1OCC(F)(F)O2 (centres unmarked) [II-15]
